Measurements as given in patent US10556926B2, “Synthetic artificial peptides with antimicrobial effect” (priority 2014, dated 2020).
Values after ≈ are worked out from the molar mass of the structure shown. No end group written: not given here.

Legend:
E. coli DH5α = conditions: MHB, 18 hours at 37° C.; mean of four test series
Summary of the method: (§1)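 Broth microdilution MIC per CLSI/EUCAST, adapted for cationic peptides, in Mueller-Hinton broth. Peptides at final 64 to 0.25 μM (2-fold series) with 5·10^4 bacteria/ml, 18 h at 37° C with shaking; growth read as absorbance at 600 nm.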

Staphylococcus xylosus = conditions: MHB, 18 hours at 37° C.; mean of four test series
Summary of the method: as §1

E. coli ML-35p = experiment: Kinetics of permeabilization of the inner bacteria membrane (ONPG); type: cell-based, Escherichia coli
Description: The ability of the antimicrobial peptides for the respective permeabilization of the outer and inner bacteria membrane was tested by way of example on E. coli ML-35p (made available by Dr. R. E. Lehrer, Center for Health Sciences, Los Angeles, Calif., USA). The peptides were incubated in serial dilution with E. coli ML-35p and the time-dependent release of cell-internal components was measured in a slightly modified protocol according to Ericsson et al. (2002). For this purpose, the bacteria were cultured in Luria-Bertani (LB) medium with 100 μg/ml ampicillin (Fluka, Taufkirchen, Germany) until reaching an optical density of 0.4 at 600 nm wavelength. Then, the cells were washed three times by centrifugation at 4000 g for 1 min and subsequent up-take in 10 mM HEPES buffer pH 7.2. Finally, the cells were diluted to an optical density of 0.3 at 600 nm wavelength. To measure the permeabilization of the outer membrane, nitrocefin (Merck, Darmstadt, Germany) was diluted in HEPES buffer to a concentration of 60 μg/ml. The antimicrobial peptides were diluted in HEPES buffer to an end concentration of 12 μM, 24 μM, 48 μM and 96 μM end concentration. In the next step, 50 μl of nitrocefin were admixed with 50 μl of antimicrobial peptide and 50 μl of bacteria suspension such that an end concentration of 20 μg/ml of nitrocefin, 4 μM to 32 μM of antimicrobial peptide and bacteria with an optical density of 0.1 to 600 nm were present. The samples were mixed and the absorption at 500 nm wavelength was measured directly over a period of at least 90 min at 37° C. with regular shaking in a FLUOstar omega Microplate Reader (BMG Labtech, Ortenberg, Germany). The investigation of the permeabilization of the inner membrane was carried out in the same way except that instead of the nitrocefin accordingly 0-nitrophenyl-beta-D-galactoside (ONPG, Sigma-Aldrich) in an end concentration of 100 μg/ml was used and the absorption change was determined at a wavelength of 420 nm. The control used was samples without antimicrobial peptide, the positive control used for the membrane permeabilization was polymyxin B (Sigma-Aldrich) in an end concentration of 5 μM. For the data evaluation, firstly the measurement values of the corresponding negative controls were deducted from the measurement values of the samples, and the difference was then divided by the corresponding measurement values of the permeabilization control. Then, a graphical evaluation was carried out, the calculated values being plotted against the peptide concentration and being fitted with the help of the Origin Pro 8.1 G Software (OriginLab) according to a sigmoidal model. As representative examples, FIGS. 4 and 5 show the graphical evaluation for the kinetic investigation of the permeabilization of the outer E. coli bacteria membrane for the peptides N4 (FIG. 4) and O1 (FIG. 5).
As comparison parameter between the peptides, the times were ascertained from this at which 50% of the final signal level was reached. For this purpose, the equation with the percentage membrane permeabilization y, the time x in minutes, the lower plateau A1, the upper plateau A2, the point of inflection Log X0 and the Hill incline p
[formula] was used. The calculation of the parameters A1, A2, Log X0 and p was performed by the program by reference to the compensating curve. Further resolution of equation 5.1 for the case y=50 then produced for x the desired time at which the half-maximum signal level was reached.

KILILIKRK-OH [N4]
MIC E. coli (E. coli DH5α): 32 µM
MIC S. xylosus (Staphylococcus xylosus): 16 µM
Inner membrane, time to 50% of final signal (E. coli ML-35p; 4 μM peptide): >90 min
Inner membrane, time to 50% of final signal (E. coli ML-35p; 8 μM peptide): >90 min
Inner membrane, time to 50% of final signal (E. coli ML-35p; 16 μM peptide): >90 min
Inner membrane, time to 50% of final signal (E. coli ML-35p; 32 μM peptide): >90 min

MPRRRRSSSRPVRRRRRPRVSRRRRRRGGRRR (Protamine) [protamine from salmon, grade IV, histone-free (Sigma-Aldrich)]
MIC E. coli (E. coli DH5α): 8 µM
MIC S. xylosus (Staphylococcus xylosus): 0.5 µM
Inner membrane, time to 50% of final signal (E. coli ML-35p; 4 μM peptide): >90 min
Inner membrane, time to 50% of final signal (E. coli ML-35p; 8 μM peptide): >90 min
Inner membrane, time to 50% of final signal (E. coli ML-35p; 16 μM peptide): >90 min
Inner membrane, time to 50% of final signal (E. coli ML-35p; 32 μM peptide): >90 min

KRKRKILILIKRK-OH [N1]
MIC E. coli (E. coli DH5α): 8 µM
MIC S. xylosus (Staphylococcus xylosus): 0.5 µM
Inner membrane, time to 50% of final signal (E. coli ML-35p; 4 μM peptide): >90 min
Inner membrane, time to 50% of final signal (E. coli ML-35p; 8 μM peptide): >90 min
Inner membrane, time to 50% of final signal (E. coli ML-35p; 16 μM peptide): 38 min
Inner membrane, time to 50% of final signal (E. coli ML-35p; 32 μM peptide): 32 min

CC[C@H](C)[C@H](NC(=O)CN)C(=O)NCC(=O)N[C@@H](C)C(=O)N[C@H](C(=O)N[C@@H](CC(C)C)C(=O)N[C@@H](CCCCN)C(=O)N[C@H](C(=O)N[C@@H](CC(C)C)C(=O)N[C@H](C(=O)N[C@H](C(=O)NCC(=O)N[C@@H](CC(C)C)C(=O)N1CCC[C@H]1C(=O)N[C@@H](C)C(=O)N[C@@H](CC(C)C)C(=O)N[C@H](C(=O)N[C@@H](CO)C(=O)N[C@@H](Cc1c[nH]c2ccccc12)C(=O)N[C@H](C(=O)N[C@@H](CCCCN)C(=O)N[C@@H](CCCNC(=N)N)C(=O)N[C@@H](CCCCN)C(=O)N[C@@H](CCCNC(=N)N)C(=O)N[C@@H](CCC(N)=O)C(=O)N[C@@H](CCC(N)=O)C(N)=O)[C@@H](C)CC)[C@@H](C)CC)[C@@H](C)O)[C@@H](C)O)C(C)C)C(C)C [Melittin]
MIC E. coli (E. coli DH5α): 8 µM (≈ 22.8 µg/mL)
MIC S. xylosus (Staphylococcus xylosus): 2 µM (≈ 5.69 µg/mL)
Inner membrane, time to 50% of final signal (E. coli ML-35p; 4 μM peptide): 18 min
Inner membrane, time to 50% of final signal (E. coli ML-35p; 8 μM peptide): 12 min
Inner membrane, time to 50% of final signal (E. coli ML-35p; 16 μM peptide): 9 min
Inner membrane, time to 50% of final signal (E. coli ML-35p; 32 μM peptide): 6 min

ILPWKWPWWPWRR [Indolicidin]
MIC E. coli (E. coli DH5α): 4 µM
MIC S. xylosus (Staphylococcus xylosus): 32 µM
Inner membrane, time to 50% of final signal (E. coli ML-35p; 4 μM peptide): >90 min
Inner membrane, time to 50% of final signal (E. coli ML-35p; 8 μM peptide): >90 min
Inner membrane, time to 50% of final signal (E. coli ML-35p; 16 μM peptide): >90 min
Inner membrane, time to 50% of final signal (E. coli ML-35p; 32 μM peptide): >90 min
